Experimental data published in US20210253575A1, “PYRROLIDINE AMINE COMPOUNDS FOR THE TREATMENT OF AUTOIMMUNE DISEASE” (Hoffmann-La Roche Inc., priority 2018, published 2021).

Target: T1, human TLR7 (Homo sapiens, UniProt Q9NYK1)
T1 sequence (Q9NYK1 27-1049): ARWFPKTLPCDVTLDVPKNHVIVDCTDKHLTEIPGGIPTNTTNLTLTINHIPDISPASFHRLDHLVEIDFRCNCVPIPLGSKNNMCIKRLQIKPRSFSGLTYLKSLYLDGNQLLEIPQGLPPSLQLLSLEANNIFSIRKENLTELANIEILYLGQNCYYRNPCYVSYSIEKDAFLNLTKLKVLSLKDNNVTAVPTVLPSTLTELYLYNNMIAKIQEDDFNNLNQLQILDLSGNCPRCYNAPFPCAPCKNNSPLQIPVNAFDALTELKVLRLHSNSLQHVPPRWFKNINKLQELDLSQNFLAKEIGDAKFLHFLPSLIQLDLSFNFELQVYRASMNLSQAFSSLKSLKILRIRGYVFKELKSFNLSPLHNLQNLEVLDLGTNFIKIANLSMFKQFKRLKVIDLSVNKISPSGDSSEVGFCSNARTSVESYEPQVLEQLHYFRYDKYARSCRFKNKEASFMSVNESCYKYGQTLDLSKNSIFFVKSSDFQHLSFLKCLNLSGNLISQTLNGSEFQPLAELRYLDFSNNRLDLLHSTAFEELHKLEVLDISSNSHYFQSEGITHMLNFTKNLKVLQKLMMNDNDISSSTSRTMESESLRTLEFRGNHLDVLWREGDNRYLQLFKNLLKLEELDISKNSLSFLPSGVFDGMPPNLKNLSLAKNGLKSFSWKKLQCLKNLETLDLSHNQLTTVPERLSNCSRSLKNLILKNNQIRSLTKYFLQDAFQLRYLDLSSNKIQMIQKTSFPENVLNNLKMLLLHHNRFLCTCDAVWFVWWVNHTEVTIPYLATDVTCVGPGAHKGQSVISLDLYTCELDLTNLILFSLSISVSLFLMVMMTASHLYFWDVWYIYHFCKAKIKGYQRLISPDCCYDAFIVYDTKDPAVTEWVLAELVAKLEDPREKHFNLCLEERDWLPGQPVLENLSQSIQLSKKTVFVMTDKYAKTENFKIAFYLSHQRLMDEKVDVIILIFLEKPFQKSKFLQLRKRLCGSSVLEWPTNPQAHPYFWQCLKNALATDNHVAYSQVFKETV
Assay: HEK293-Blue-hTLR-7 cells assay (SEAP reporter, R848 stimulation)
Format: cell-based
Conditions: HEK293-Blue-hTLR7 cells, R848 ligand, 20 hrs incubation
Experimental: The following tests were carried out in order to determine the activity of the compounds of formula (I) in HEK293-Blue-hTLR-7/8/9 cells assay.
HEK293-Blue-hTLR-7 Cells Assay:
A stable HEK293-Blue-hTLR-7 cell line was purchased from InvivoGen (Cat. #: hkb-htlr7, San Diego, Calif., USA). These cells were originally designed for studying the stimulation of human TLR7 by monitoring the activation of NF-κB. A SEAP (secreted embryonic alkaline phosphatase) reporter gene was placed under the control of the IFN-β minimal promoter fused to five NF-κB and AP-1-binding sites. The SEAP was induced by activating NF-κB and AP-1 via stimulating HEK-Blue hTLR7 cells with TLR7 ligands. Therefore the reporter expression was declined by TLR7 antagonist under the stimulation of a ligand, such as R848 (Resiquimod), for incubation of 20 hrs. The cell culture supernatant SEAP reporter activity was determined using QUANTI-Blue™ kit (Cat. #: rep-qb1, Invivogen, San Diego, Ca, USA) at a wavelength of 640 nm, a detection medium that turns purple or blue in the presence of alkaline phosphatase.
HEK293-Blue-hTLR7 cells were incubated at a density of 250,000-450,000 cells/mL in a volume of 170 μL in a 96-well plate in Dulbecco's Modified Eagle's medium (DMEM) containing 4.5 g/L glucose, 50 U/mL penicillin, […], […], 2 mM L-glutamine, 10% (v/v) heat-inactivated fetal bovine serum with addition of 20 μL test compound in a serial dilution in the presence of final DMSO at 1% and 10 μL of 20 uM R848 in above DMEM, perform incubation under 37° C. in a CO2 incubator for 20 hrs. Then 20 μL of the supernatant from each well was incubated with 180 μL Quanti-blue substrate solution at 37° C. for 2 hrs and the absorbance was read at 620-655 nm using a spectrophotometer. The signalling pathway that TLR7 activation leads to downstream NF-κB activation has been widely accepted, and therefore similar reporter assay was modified for evaluating TLR7 antagonist.

Compound	IC50 [µM]
N#Cc1ccc(N2C[C@H](CN3CCC(N4CCNCC4)CC3)[C@@H](C(F)(F)F)C2)c2cccnc12 [Example 52, 5-[(3S,4R)-3-[(4-piperazin-1-yl-1-piperidyl)methyl]-4-(trifluoromethyl)pyrrolidin-1-yl]quinoline-8-carbonitrile]	0.039
N#Cc1ccc(N2C[C@H](CN3CC4(CC(N)C4)C3)[C@@H](C(F)(F)F)C2)c2cccnc12 [Example 53, 5-[(3S,4R)-3-[(6-Amino-2-azaspiro[3.3]heptan-2-yl)methyl]-4-(trifluoromethyl)pyrrolidin-1-yl]quinoline-8-carbonitrile]	0.115
N#Cc1ccc(N2C[C@H](CN3CCC4(CCNC4)CC3)[C@@H](C(F)(F)F)C2)c2cccnc12 [Example 54, 5-[(3S,4R)-3-(2,8-Diazaspiro[4.5]decan-8-ylmethyl)-4-(trifluoromethyl)pyrrolidin-1-yl]quinoline-8-carbonitrile]	0.091
N#Cc1ccc(N2C[C@H](CN3CCC4(CCCNC4)CC3)[C@@H](C(F)(F)F)C2)c2cccnc12 [Example 55, 5-[(3S,4R)-3-(2,9-Diazaspiro[5.5]undecan-9-ylmethyl)-4-(trifluoromethyl)pyrrolidin-1-yl]quinoline-8-carbonitrile]	0.111
N#Cc1ccc(N2C[C@H](CN3CCC4(CCNCC4)C3)[C@@H](C(F)(F)F)C2)c2cccnc12 [Example 56, 5-[(3S,4R)-3-(2,8-Diazaspiro[4.5]decan-2-ylmethyl)-4-(trifluoromethyl)pyrrolidin-1-yl]quinoline-8-carbonitrile]	0.113
N#Cc1ccc(N2C[C@H](CN3CCCC4(CCNCC4)C3)[C@@H](C(F)(F)F)C2)c2cccnc12 [Example 57, 5-[(3S,4R)-3-(2,9-Diazaspiro[5.5]undecan-2-ylmethyl)-4-(trifluoromethyl)pyrrolidin-1-yl]quinoline-8-carbonitrile]	0.073
N#Cc1ccc(N2CC(CN3CCC(N4CCOCC4)CC3)C3(CC3)C2)c2nccnc12 (stereo not drawn) [Example 58, 8-[7-[(4-Morpholino-1-piperidyl)methyl]-5-azaspiro[2.4]heptan-5-yl]quinoxaline-5-carbonitrile]	0.313
N#Cc1ccc(N2C[C@H](CN3CCNCC3)[C@@H](C(F)(F)F)C2)c2nccnc12 [Example 59, 8-[(3S,4R)-3-(Piperazin-1-ylmethyl)-4-(trifluoromethyl)pyrrolidin-1-yl]quinoxaline-5-carbonitrile]	0.018
N#Cc1ccc(N2C[C@H](CN3CCC(N4CCCC4)CC3)[C@@H](C(F)(F)F)C2)c2nccnc12 [Example 60, 8-[(3S,4R)-3-[(4-Pyrrolidin-1-yl-1-piperidyl)methyl]-4-(trifluoromethyl)pyrrolidin-1-yl]quinoxaline-5-carbonitrile]	0.029
N#Cc1ccc(N2C[C@H](CN3CCC(N4CCCCC4)CC3)[C@@H](C(F)(F)F)C2)c2nccnc12 [Example 61, 8-[(3S,4R)-3-[[4-(1-Piperidyl)-1-piperidyl]methyl]-4-(trifluoromethyl)pyrrolidin-1-yl]quinoxaline-5-carbonitrile]	0.022
N#Cc1ccc(N2C[C@H](CN3CCC(N4CCCCCC4)CC3)[C@@H](C(F)(F)F)C2)c2nccnc12 [Example 62, 8-[(3S,4R)-3-[[4-(Azepan-1-yl)-1-piperidyl]methyl]-4-(trifluoromethyl)pyrrolidin-1-yl]quinoxaline-5-carbonitrile]	0.034
N#Cc1ccc(N2C[C@H](CN3C4CCC3CC(N)C4)[C@@H](C(F)(F)F)C2)c2nccnc12 (stereo partly drawn) [Example 63, 8-[(3S,4R)-3-[(3-amino-8-azabicyclo[3.2.1]octan-8-yl)methyl]-4-(trifluoromethyl)pyrrolidin-1-yl]quinoxaline-5-carbonitrile]	0.057
N#Cc1ccc(N2C[C@H](CN3CCC(N)C(F)(F)C3)[C@@H](C(F)(F)F)C2)c2nccnc12 (stereo partly drawn) [Example 64, 8-[(3S,4R)-3-[(4-amino-3,3-difluoro-1-piperidyl)methyl]-4-(trifluoromethyl)pyrrolidin-1-yl]quinoxaline-5-carbonitrile]	0.036
N#Cc1ccc(N2CC(CN3CCC4(CCCCN4)CC3)C3(CC3)C2)c2nccnc12 (stereo not drawn) [Example 65, 8-[7-(1,9-Diazaspiro[5.5]undecan-9-ylmethyl)-5-azaspiro[2.4]heptan-5-yl]quinoxaline-5-carbonitrile]	0.108
N#Cc1ccc(N2CC(CN3CCC4NCC4C3)C3(CC3)C2)c2nccnc12 (stereo not drawn) [Example 66, 8-[7-(3,7-Diazabicyclo[4.2.0]octan-3-ylmethyl)-5-azaspiro[2.4]heptan-5-yl]quinoxaline-5-carbonitrile]	0.063
N#Cc1ccc(N2CC(CN3CCOC4(CCNCC4)C3)C3(CC3)C2)c2nccnc12 (stereo not drawn) [Example 67, 8-[7-(1-Oxa-4,9-diazaspiro[5.5]undecan-4-ylmethyl)-5-azaspiro[2.4]heptan-5-yl]quinoxaline-5-carbonitrile]	0.131
N#Cc1ccc(N2CC(CN3CCC(N)CC3)C3(CC3)C2)c2nccnc12 (stereo not drawn) [Example 68, 8-[7-[(4-Amino-1-piperidyl)methyl]-5-azaspiro[2.4]heptan-5-yl]quinoxaline-5-carbonitrile]	0.075
N#Cc1ccc(N2C[C@H](CN3CCCC(C(N)=O)C3)[C@@H](C(F)(F)F)C2)c2nccnc12 (stereo partly drawn) [Example 69, 1-[[(3S,4R)-1-(S-cyanoquinoxalin-5-yl)-4-(trifluoromethyl)pyrrolidin-3-yl]methyl]piperidine-3-carboxamide]	0.135
N#Cc1ccc(N2C[C@H](CN3CCC4(CC3)CNCCO4)[C@@H](C(F)(F)F)C2)c2nccnc12 [Example 70, 8-[(3S,4R)-3-(1-oxa-4,9-diazaspiro[5.5]undecan-9-ylmethyl)-4-(trifluoromethyl)pyrrolidin-1-yl]quinoxaline-5-carbonitrile]	0.012
N#Cc1ccc(N2C[C@H](CNC3CCNCC3)[C@@H](C(F)(F)F)C2)c2nccnc12 [Example 71, 8-[(3S,4R)-3-[(4-piperidylamino)methyl]-4-(trifluoromethyl)pyrrolidin-1-yl]quinoxaline-5-carbonitrile]	0.039
C[C@H]1CN(C[C@H]2CN(c3ccc(C#N)c4nccnc34)C[C@@H]2C(F)(F)F)CC[C@H]1N [Example 72, 8-[(3S,4R)-3-[[(3S,4R)-4-amino-3-methyl-1-piperidyl]methyl]-4-(trifluoromethyl)pyrrolidin-1-yl]quinoxaline-5-carbonitrile]	0.013
N#Cc1ccc(N2C[C@H](CN3CC4CCC(C3)C4N)[C@@H](C(F)(F)F)C2)c2nccnc12 (stereo partly drawn) [Example 73, 8-[(3S,4R)-3-[(8-amino-3-azabicyclo[3.2.1]octan-3-yl)methyl]-4-(trifluoromethyl)pyrrolidin-1-yl]quinoxaline-5-carbonitrile]	0.02
N#Cc1ccc(N2C[C@H](CN3CCC(CN)CC3)[C@@H](C(F)(F)F)C2)c2nccnc12 [Example 74, 8-[(3S,4R)-3-[[4-(aminomethyl)-1-piperidyl]methyl]-4-(trifluoromethyl)pyrrolidin-1-yl]quinoxaline-5-carbonitrile]	0.028
CC1(CN)CCCN(C[C@H]2CN(c3ccc(C#N)c4nccnc34)C[C@@H]2C(F)(F)F)C1 (stereo partly drawn) [Example 75, 8-[(3S,4R)-3-[[3-(aminomethyl)-3-methyl-1-piperidyl]methyl]-4-(trifluoromethyl)pyrrolidin-1-yl]quinoxaline-5-carbonitrile]	0.026
